From the supplement of paper PMC10307832

How the values were obtained:
Test in all cases: relative viability (nuclei count vs DMSO), 5 days (fraction); higher = more cells survive
Vemurafenib + Pemetrexed = compound: CCCS(=O)(=O)Nc1ccc(F)c(C(=O)c2c[nH]c3ncc(-c4ccc(Cl)cc4)cc23)c1F [Vemurafenib] + Nc1nc2[nH]cc(CCc3ccc(C(=O)N[C@@H](CCC(=O)O)C(=O)O)cc3)c2c(=O)[nH]1 [Pemetrexed] (partner 0.2 µM)
How it was run: (§1)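 One day after seeding in 1536-well plates, lung cancer cell lines were dosed by pin tool. Dosing was either single-drug or a fixed anchor-drug dose plus five library-drug doses (not always all listed) in √10 steps. After 5 days, nuclei were stained in one fix-and-stain step and counted on 4× images, and relative viability is the nuclei count of treated wells over that of vehicle wells, given as the median of duplicate plates.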

OSI-027 + Alpelisib = compound: COc1cccc2cc(-c3nc([C@H]4CC[C@H](C(=O)O)CC4)n4ncnc(N)c34)[nH]c12 [OSI-027] + Cc1nc(NC(=O)N2CCC[C@H]2C(N)=O)sc1-c1ccnc(C(C)(C)C(F)(F)F)c1 [Alpelisib] (partner 2 µM)
How it was run: as §1

Alpelisib + AZD7762 = compound: Cc1nc(NC(=O)N2CCC[C@H]2C(N)=O)sc1-c1ccnc(C(C)(C)C(F)(F)F)c1 [Alpelisib] + NC(=O)Nc1cc(-c2cccc(F)c2)sc1C(=O)N[C@H]1CCCNC1 [AZD7762] (partner 0.2 µM)
How it was run: as §1

OSI-027 + Decitabine = compound: COc1cccc2cc(-c3nc([C@H]4CC[C@H](C(=O)O)CC4)n4ncnc(N)c34)[nH]c12 [OSI-027] + Nc1ncn([C@H]2C[C@H](O)[C@@H](CO)O2)c(=O)n1 [Decitabine] (partner 2 µM)
How it was run: as §1

| Cell Line | relative viability (Vemurafenib + Pemetrexed; first compound 0.03162 µM) | relative viability (Vemurafenib + Pemetrexed; first compound 0.1 µM) | relative viability (Vemurafenib + Pemetrexed; first compound 0.3162 µM) | relative viability (Vemurafenib + Pemetrexed; first compound 1 µM) | relative viability (OSI-027 + Alpelisib; first compound 0.01 µM) | relative viability (OSI-027 + Alpelisib; first compound 0.03162 µM) | relative viability (OSI-027 + Alpelisib; first compound 0.1 µM) | relative viability (OSI-027 + Alpelisib; first compound 0.3162 µM) | relative viability (OSI-027 + Alpelisib; first compound 1 µM) | relative viability (Alpelisib + AZD7762; first compound 0.04 µM) | relative viability (Alpelisib + AZD7762; first compound 0.1265 µM) | relative viability (Alpelisib + AZD7762; first compound 0.4 µM) | relative viability (Alpelisib + AZD7762; first compound 1.265 µM) | relative viability (Alpelisib + AZD7762; first compound 4 µM) | relative viability (OSI-027 + Decitabine; first compound 0.01 µM) | relative viability (OSI-027 + Decitabine; first compound 0.03162 µM) | relative viability (OSI-027 + Decitabine; first compound 0.1 µM) | relative viability (OSI-027 + Decitabine; first compound 0.3162 µM) | relative viability (OSI-027 + Decitabine; first compound 1 µM) |
| --- | --- | --- | --- | --- | --- | --- | --- | --- | --- | --- | --- | --- | --- | --- | --- | --- | --- | --- | --- |
| NCI-H1563 | 0.708 | 0.627 | 0.681 | 0.65 | 0.983 | 0.888 | 0.82 | 0.673 | 0.759 | – | – | – | – | – | – | – | – | – | – |
| NCI-H2228 | 0.315 | 0.321 | 0.391 | 0.323 | 0.934 | 0.808 | 0.674 | – | 0.546 | – | – | – | – | – | – | – | – | – | – |
| CAL-12T | 1.16 | 1.15 | 1.52 | 1.17 | 1.28 | 0.907 | 1.09 | 0.954 | 0.391 | 0.7 | 0.593 | 0.754 | 0.566 | 0.643 | – | – | – | – | – |
| SK-LU-1 | 0.928 | 0.891 | 0.861 | 0.974 | 1.25 | 0.978 | 0.64 | 0.394 | 0.304 | – | – | – | – | – | 0.594 | 0.631 | 0.663 | 0.483 | 0.406 |
| Calu-6 | – | – | – | – | 0.917 | 0.974 | 0.75 | 0.697 | 0.42 | – | – | – | – | – | – | – | – | – | – |
| ChaGo-K-1 | 0.247 | 0.267 | 0.261 | 0.274 | – | – | – | – | – | 0.865 | 0.909 | 0.875 | 0.791 | 0.672 | 0.518 | 0.526 | 0.497 | 0.522 | 0.45 |
| SK-MES-1 | 0.891 | – | 0.858 | 0.92 | 0.898 | 0.841 | 0.811 | 0.534 | 0.337 | – | – | – | – | – | 0.362 | 0.36 | 0.304 | 0.307 | 0.223 |
| NCI-H1648 | – | 0.671 | 1.01 | 0.748 | – | – | – | – | – | 0.581 | 0.591 | 0.821 | 0.62 | 0.521 | 0.477 | 0.51 | – | 0.445 | 0.45 |
| NCI-H727 | – | – | – | – | 0.567 | 0.63 | 0.491 | 0.419 | 0.378 | 0.472 | 0.567 | 0.625 | 0.673 | 0.555 | 0.808 | 0.778 | 0.849 | 0.774 | 0.761 |
| NCI-H2023 | 0.229 | 0.2 | 0.207 | 0.278 | 0.608 | 0.499 | 0.505 | 0.34 | 0.19 | – | – | – | – | – | 0.202 | 0.213 | 0.2 | 0.207 | 0.149 |
| SW 900 | 0.494 | 0.466 | 0.457 | 0.478 | – | – | – | – | – | 0.629 | – | 0.545 | 0.546 | 0.519 | 0.438 | 0.402 | 0.42 | 0.48 | 0.384 |
| NCI-H2009 | 1.13 | 0.897 | 0.869 | 0.915 | 1.14 | 1.14 | 1.07 | 0.999 | 0.568 | – | – | – | – | – | 0.418 | 0.354 | 0.339 | 0.36 | 0.295 |
